We go through 7 molecules from patent publication US5665760A, “Lyophilized thioxanthenone antitumor agents” (priority 1995, dated 1997).

Structures are written as SMILES.

What all share (type): in vivo
Series [1] deals with P388/adriamycin resistant leukemia. The series can be described thus: P388/adriamycin resistant leukemia, cells implanted i.v.
Series [2] relates to pancreatic ductal adenocarcinoma #03. Put plainly: antitumor activity in mice against pancreatic ductal adenocarcinoma #03 (Panc 03). The following applies: for Weight Loss / Drug Deaths: Table 1, total doses as in E1; for Weight Loss: average body weight 25 g. The protocol: (§1) Representative examples of the invention were tested for antitumor activity in mice according to the following procedure:
(§2) The animals were pooled, implanted subcutaneously with 30 to 60 mg tumor fragments by 12-gauge trocar, and again pooled before unselective distribution to the various treatment and control groups. For early-stage treatment, chemotherapy was started within 1 to 5 days after tumor implantation while the number of cells was relatively small (10^7 to 10^8 cells). For advanced-stage treatment, chemotherapy was delayed until the tumor became relatively large (200 to 300 mg in size). A 300-mg tumor contains approximately 3×10^8 total cells. […] Tumors were measured with a caliper weekly (or twice weekly for the more rapidly growing tumors). Mice were sacrificed when their tumors reached 1500 mg (i.e., before they can cause the animal discomfort). Tumor weights were estimated from two-dimensional measurements.
(§3) The treatment and control groups were measured when the control group tumors reached approximately 700 to 1200 mg in size (Median of Group). The median tumor weight of each group was determined (including zeros). […] A T/C value <10% is considered to indicate highly significant antitumor activity.
(§4) The results are shown in Table I for pancreatic ductal adenocarcinoma #03 and in Table 2 for colon adenocarcinoma #38.

For the next series, the system named is colon adenocarcinoma #38. Put plainly: antitumor activity in mice against colon adenocarcinoma #38. The protocol:
as §1, §2, §3, §4

[3] abbreviates: 10^5 cells, 150 mg/kg total, i.v. 3 hour infusion days 1, 4.
The mark [4] stands for this setting: 10^5 cells, 300 mg/kg total, i.v. 3 hour infusion days 1, 4.
[5] abbreviates: 10^5 cells, 450 mg/kg total, i.v. 3 hour infusion days 1, 4.
Where [6] appears, read: 10^5 cells, 200 mg/kg total, i.v. 3 hour infusion days 1, 4.
The mark [7] stands for this setting: 10^5 cells, 320 mg/kg total, i.v. 3 hour infusion days 1, 4.
Setting [8] is: 10^5 cells, 520 mg/kg total, i.v. 3 hour infusion days 1, 4.
[9] abbreviates: Mus musculus, ip, read-out: T/C.
Setting [10] is: Table 2, i.p., total dose mg/kg by Example: 10:340, 11:518.
Where [11] appears, read: Table 2, p.o., total dose mg/kg by Example: 10:460, 11:885.
The mark [12] stands for this setting: Table 2, p.o., total dose mg/kg by Example: 10:740, 11:1709.
Where [13] appears, read: Table 2, total dose 160 mg/kg i.p.
[14] abbreviates: Table 2, total dose 200 mg/kg i.p.
[15] abbreviates: Table 2, total dose 865 mg/kg i.p.
The mark [16] stands for this setting: Table 2, total dose 327 mg/kg, i.v. days 3-6 and p.o. days 7-10.
[17] abbreviates: Table 2, total dose 529 mg/kg, i.v. days 3-6 and p.o. days 7-10.
[18] abbreviates: Table 2, total dose 852 mg/kg, i.v. days 3-6 and p.o. days 7-10.
Setting [19] is: Table 2, i.v., total dose mg/kg by Example: 2:600, 5:960, 6:132, 7:840, 16(a):1000, 18(e):180.
[20] abbreviates: 10^6 cells, 76 mg/kg total, i.v. […] infusion day 1.
[21] abbreviates: 10^6 cells, 123 mg/kg total, i.v. […] infusion day 1.
Where [22] appears, read: 10^6 cells, 198 mg/kg total, i.v. […] infusion day 1.
The mark [23] stands for this setting: 10^6 cells, 320 mg/kg total, i.v. […] infusion day 1.
Setting [24] is: Table 2, i.v., total dose mg/kg by Example: 6:82, 16(a):690, 18(e):120.

The T/C is the ratio of treated to control. Consider `CCN(C=O)Cc1ccc(NCCN(CC)CC)c2c(=O)c3ccccc3sc12` [Example 13, N-[[1-[[2-(Diethylamino)ethyl]amino]-9-oxothioxanthen-4-yl]methyl]-N-ethylformamide], for which the “Drug Deaths” value in series [1] (setting [3]) is 0/8; in series [1] (setting [4]), 0/7; in series [1] (setting [5]), 2/7; in series [2], 0. Moreover, the figures for the “Wt. Loss at Nadir” value in series [1] (setting [3]), in series [1] (setting [4]) and in series [1] (setting [5]) were -1.75 g/mouse, -1.75 g/mouse and -3.0 g/mouse, respectively. For the same molecule, the “% ILS (percentage increase in lifespan)” value is on record as 8% in series [1] (iv, 150 mg/kg, 3 h); 15% in series [1] (iv, 300 mg/kg, 3 h); 38% in series [1] (iv, 450 mg/kg, 3 h). Also, the “Log10 Tumor cell kill” value in series [1] (iv, 150 mg/kg, 3 h) stood at 0.5; in series [1] (iv, 300 mg/kg, 3 h) it was 1.0; in series [1] (iv, 450 mg/kg, 3 h) it was 2.5. Further, the “Tumor Cell” value in series [1] (iv, 300 mg/kg) is 0/7; in series [1] (iv, 450 mg/kg), 0/7. The T/C in series [2] is 0%. Besides, the “Weight Loss” value in series [2] is given as 2.4 g.

Consider `CCN(CC)CCNc1ccc(CNC(C)=O)c2sc3ccccc3c(=O)c12` [Example 10, N-[[1-[[2-(Diethylamino)ethyl]amino]-9-oxo-thioxanthen-4-yl]methyl]acetamide], for which the “Drug Deaths” value in series [1] (setting [6]) was 0/7; in series [1] (setting [7]), 0/5; in series [1] (setting [8]), 3/7; in series [2], 0; in the series with colon adenocarcinoma #38 (setting [10]) it was 0; in the series on colon adenocarcinoma #38 (setting [11]) it was 0. Moreover, the “Drug Deaths” value is given as 2/5 in the series on colon adenocarcinoma #38 (setting [12]), 0 in the series on colon adenocarcinoma #38 (setting [13]), 0 in the series with colon adenocarcinoma #38 (setting [14]) and 0 in the series on colon adenocarcinoma #38 (setting [15]). For the same molecule, the “Wt. Loss at Nadir” value is reported as -1.5 g/mouse in series [1] (setting [6]), -1.75 g/mouse in series [1] (setting [7]) and -3.75 g/mouse in series [1] (setting [8]). Besides, the “Tumor Cell” value is given as 0/7 in series [1] (iv, 200 mg/kg) and 0/5 in series [1] (iv, 320 mg/kg). Besides, the “% ILS (percentage increase in lifespan)” value in series [1] (iv, 200 mg/kg, 3 h) is reported as 8%; in series [1] (iv, 320 mg/kg, 3 h), 23%; in series [1] (iv, 520 mg/kg, 3 h), 54%. Moreover, the “Log10 Tumor cell kill” value was found to be 0.5 in series [1] (iv, 200 mg/kg, 3 h); 1.5 in series [1] (iv, 320 mg/kg, 3 h); 3.5 in series [1] (iv, 520 mg/kg, 3 h). For the same molecule, the “Weight Loss” value in series [2] came to 2.4 g; with colon adenocarcinoma #38 (setting [10]) it was 4.0 g; with colon adenocarcinoma #38 (setting [11]), 1.2 g; in the series on colon adenocarcinoma #38 (setting [12]) it was 4.0 g; in the series with colon adenocarcinoma #38 (setting [13]), 0.6 g; with colon adenocarcinoma #38 (setting [14]), 2.3 g. In addition, in the series on colon adenocarcinoma #38 (setting [15]), the “Weight Loss” value was determined as 2.0 g. Besides, in the series on colon adenocarcinoma #38 (setting [9]), the response vs control in vivo at 160 mg/kg came to 22%. Besides, in the series on colon adenocarcinoma #38 (setting [9]), the response vs control in vivo at 200 mg/kg amounted to 24%. Besides, the response vs control in vivo at 865 mg/kg in the series on colon adenocarcinoma #38 (setting [9]) was 23%.

Consider `CCN(CC)CCNc1ccc(CN(CC)S(C)(=O)=O)c2sc3ccccc3c(=O)c12` [Example 25, N-[[1-[[2-(Diethylamino)ethyl]amino]-9-oxothioxanthen-4-yl]methyl]-N-ethyl-methanesulfonamide], for which, in series [2], the T/C came to 0%, the “Weight Loss” value is given as 4.6 g and the “Drug Deaths” value is 0. In the series with colon adenocarcinoma #38 (Mus musculus, read-out: T/C), the response vs control in vivo at 327 mg/kg was determined as 0%, the response vs control in vivo at 529 mg/kg came out at 0% and the response vs control in vivo at 852 mg/kg is 0%. In the series with colon adenocarcinoma #38 (setting [16]), the “Drug Deaths” value turned out to be 0 and the “Weight Loss” value is listed as 0.8 g. In addition, in the series with colon adenocarcinoma #38 (setting [17]), the “Drug Deaths” value is 0 and the “Weight Loss” value was 0.6 g. In the series on colon adenocarcinoma #38 (setting [18]), the “Drug Deaths” value is 4/5 and the “Weight Loss” value was 4.8 g.

As to `CCN(CC)CCNc1ccc(CNC=O)c2sc3ccccc3c(=O)c12` [Example 2, N-[[1-[[2-(Diethylamino)ethyl]amino]-9-oxothioxanthen-4-yl]methyl]formamide], the T/C (in series [2]; in the series with colon adenocarcinoma #38 (iv)) was 0% throughout. The “Weight Loss” value in series [2] was determined as 2.0 g; with colon adenocarcinoma #38 (mouse, in vivo, iv), 2.8 g. Besides, the “Drug Deaths” value (in series [2]; in the series on colon adenocarcinoma #38 (setting [19])) was 0 throughout.

As to `CCN(CC)CCNc1ccc(CNC(=O)OC)c2sc3ccccc3c(=O)c12` [Example 34, Methyl N-[[1-[[2-(diethylamino)ethyl]amino]-9-oxothioxanthen-4-yl]methyl]carbamate], the “Drug Deaths” value in series [1] (setting [20]) is 0/5; in series [1] (setting [21]) it was 0/5; in series [1] (setting [22]) it was 0/5; in series [1] (setting [23]), 5/5; in series [2], 0. The “Wt. Loss at Nadir” value was -0.4 g/mouse in series [1] (setting [20]), -1.2 g/mouse in series [1] (setting [21]), -1.2 g/mouse in series [1] (setting [22]) and -3.6 g/mouse in series [1] (setting [23]). Also, the “% ILS (percentage increase in lifespan)” value is listed as “toxic” in series [1] (setting [23]); 0% in series [1] (iv, 76 mg/kg); 8.3% in series [1] (iv, 123 mg/kg); 41.7% in series [1] (iv, 198 mg/kg). The “Log10 Tumor cell kill” value in series [1] (setting [23]) is listed as “LD100”; in series [1] (iv, 76 mg/kg), 0; in series [1] (iv, 123 mg/kg) it was 0.7; in series [1] (iv, 198 mg/kg), 3.3. Besides, the “Tumor Cell” value in series [1] (iv, 76 mg/kg) is reported as 0/5; in series [1] (iv, 123 mg/kg), 0/5; in series [1] (iv, 198 mg/kg), 0/5; in series [1] (iv, 320 mg/kg), 0/5. Further, the “Weight Loss” value in series [2] is 3.6 g.

In series [2], `CCN(CC)CCNc1ccc(CNC(=O)C(F)(F)F)c2sc3ccccc3c(=O)c12` [16(a), N-[[1-[[2-(Diethylamino)ethyl]amino]-9-oxothioxanthen-4-yl]methyl]-trifluoroacetamide] had a T/C of 21%. The “Weight Loss” value in series [2] was “+0.8 g”; in the series with colon adenocarcinoma #38 (setting [24]) it was 1.5 g; in the series on colon adenocarcinoma #38 (mouse, in vivo, iv) it was 1.2 g. Further, the “Drug Deaths” value (in series [2]; in the series on colon adenocarcinoma #38 (setting [19]); with colon adenocarcinoma #38 (setting [24])) was 0 in each case.

As for `CCN(CC)CCNc1ccc(C(N)=O)c2sc3ccccc3c(=O)c12` [Example 7, 1-[[2'-(Diethylamino)ethyl]amino]-9-oxothioxanthene-4-carboxamide], the “Weight Loss” value in series [2] is reported as 3.2 g; in the series with colon adenocarcinoma #38 (mouse, in vivo, iv), 0.6 g. Also, the “Drug Deaths” value in series [2] is 1/5; in the series on colon adenocarcinoma #38 (setting [19]), 0.
